pIC50: −log10 of the molar value.
Tested on: KRAS patient-derived spheroids with HUVEC/MSC, viability
Test: Anticancer human tumor 323965-272-R-J2-PDC patient-derived pancreatic carcinoma cell line growth inhibition [KRAS2]
Conditions: for pIC50: curve of first compound; for viability, T/C: stronger effect = lower value
How it was run: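 KRAS-mutant tumor cells were grown as spheroids with HUVEC endothelial cells and human MSCs as stroma. Targeted agents were tested alone and with KRAS pathway inhibitors. Doses started at or near clinical Cmax, or 10 microM, descending half-log.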

[1] = second compound 0.0316 µM, first compound 0.0316 µM
[2] = second compound 0.0316 µM, first compound 0.1 µM
[3] = second compound 0.0316 µM, first compound 0.316 µM
[4] = second compound 0.0316 µM, first compound 1 µM
[5] = second compound 0.0316 µM, first compound 3.16 µM
[6] = second compound 0.0316 µM, first compound 10 µM
[7] = second compound 0.1 µM, first compound 0.0316 µM
[8] = second compound 0.1 µM, first compound 0.1 µM
[9] = second compound 0.1 µM, first compound 0.316 µM
[10] = second compound 0.1 µM, first compound 1 µM
[11] = second compound 0.1 µM, first compound 3.16 µM
[12] = second compound 0.1 µM, first compound 10 µM
[13] = second compound 0.316 µM, first compound 0.0316 µM
[14] = second compound 0.316 µM, first compound 0.1 µM
[15] = second compound 0.316 µM, first compound 0.316 µM
[16] = second compound 0.316 µM, first compound 1 µM
[17] = second compound 0.316 µM, first compound 3.16 µM
[18] = second compound 0.316 µM, first compound 10 µM
[19] = second compound 1 µM, first compound 0.0316 µM
[20] = second compound 1 µM, first compound 0.1 µM
[21] = second compound 1 µM, first compound 0.316 µM
[22] = second compound 1 µM, first compound 1 µM
[23] = second compound 1 µM, first compound 3.16 µM
[24] = second compound 1 µM, first compound 10 µM
[25] = second compound 3.16 µM, first compound 0.0316 µM
[26] = second compound 3.16 µM, first compound 0.1 µM
[27] = second compound 3.16 µM, first compound 0.316 µM
[28] = second compound 3.16 µM, first compound 1 µM
[29] = second compound 3.16 µM, first compound 3.16 µM
[30] = second compound 3.16 µM, first compound 10 µM
[31] = second compound 0.0316 µM, first compound 0.000316 µM
[32] = second compound 0.0316 µM, first compound 0.001 µM
[33] = second compound 0.0316 µM, first compound 0.00316 µM
[34] = second compound 0.0316 µM, first compound 0.01 µM
[35] = second compound 0.1 µM, first compound 0.000316 µM
[36] = second compound 0.1 µM, first compound 0.001 µM
[37] = second compound 0.1 µM, first compound 0.00316 µM
[38] = second compound 0.1 µM, first compound 0.01 µM
[39] = second compound 0.316 µM, first compound 0.000316 µM
[40] = second compound 0.316 µM, first compound 0.001 µM
[41] = second compound 0.316 µM, first compound 0.00316 µM
[42] = second compound 0.316 µM, first compound 0.01 µM
[43] = second compound 1 µM, first compound 0.000316 µM
[44] = second compound 1 µM, first compound 0.001 µM
[45] = second compound 1 µM, first compound 0.00316 µM
[46] = second compound 1 µM, first compound 0.01 µM
[47] = second compound 3.16 µM, first compound 0.000316 µM
[48] = second compound 3.16 µM, first compound 0.001 µM
[49] = second compound 3.16 µM, first compound 0.00316 µM
[50] = second compound 3.16 µM, first compound 0.01 µM
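Note: spheroids exposed to agents for 7 days.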
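Throughout, for viability, T/C: 100% = DMSO vehicle control viability.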

SMILES	pIC50 (second compound 0.0316 µM)	pIC50 (second compound 0.1 µM)	pIC50 (second compound 0.316 µM)	pIC50 (second compound 1 µM)	pIC50 (second compound 3.16 µM)	viability, T/C [1] [%]	viability, T/C [2] [%]	viability, T/C [3] [%]	viability, T/C [4] [%]	viability, T/C [7] [%]	viability, T/C [8] [%]	viability, T/C [9] [%]	viability, T/C [10] [%]	viability, T/C [13] [%]	viability, T/C [14] [%]	viability, T/C [15] [%]	viability, T/C [19] [%]	viability, T/C [20] [%]	viability, T/C [25] [%]	viability, T/C [26] [%]	also measured
CC(C)NCC(C(=O)N1CCN(c2ncnc3c2C(C)CC3O)CC1)c1ccc(Cl)cc1 (stereo not given) + C=CC(=O)N1CCN(c2nc(OCC3CCCN3C)nc3c2CCN(c2cccc4cccc(C)c24)C3)CC1CC#N	6.31	6.60	6.88	6.93	> 7.50	64.4	62.4	54.3	42.2	64.5	54.9	50.2	39.2	58.8	50.6	44.1	57.7	53.6	10.2	6.16	viability, T/C [5]: 35.7%; viability, T/C [6]: 29.8%; viability, T/C [11]: 30.8%; viability, T/C [12]: 29.1%; viability, T/C [16]: 31.8%; viability, T/C [17]: 26.2%; viability, T/C [18]: 26.3%; viability, T/C [21]: 38.6%; viability, T/C [22]: 33.4%; viability, T/C [23]: 26.4%; viability, T/C [24]: 23.1%; viability, T/C [27]: 5.23%; viability, T/C [28]: 4.82%; viability, T/C [29]: 3.02%; viability, T/C [30]: 1.82%
CC(C)n1nc(-c2ccc3oc(N)nc3c2)c2c(N)ncnc21 + C=CC(=O)N1CCN(c2nc(OCC3CCCN3C)nc3c2CCN(c2cccc4cccc(C)c24)C3)CC1CC#N	9.22	9.38	> 9.50	> 9.50	> 9.50	17.2	14.5			16.5	13.5			14.8	12.1		13.9	11.1	5.8	4.1	viability, T/C [31]: 53%; viability, T/C [32]: 49.6%; viability, T/C [33]: 30.5%; viability, T/C [34]: 26%; viability, T/C [35]: 52%; viability, T/C [36]: 43.7%; viability, T/C [37]: 30.9%; viability, T/C [38]: 21.1%; viability, T/C [39]: 45.9%; viability, T/C [40]: 37.3%; viability, T/C [41]: 27.6%; viability, T/C [42]: 18.7%; viability, T/C [43]: 49.9%; viability, T/C [44]: 37.7%; viability, T/C [45]: 28.3%; viability, T/C [46]: 17.6%; viability, T/C [47]: 28.4%; viability, T/C [48]: 9.51%; viability, T/C [49]: 15.1%; viability, T/C [50]: 2.78%
CC1(C)CCC(CN2CCN(c3ccc(C(=O)NS(=O)(=O)c4ccc(NCC5CCOCC5)c([N+](=O)[O-])c4)c(Oc4cnc5[nH]ccc5c4)c3)CC2)=C(c2ccc(Cl)cc2)C1 + C=CC(=O)N1CCN(c2nc(OCC3CCCN3C)nc3c2CCN(c2cccc4cccc(C)c24)C3)CC1CC#N	5.86	5.87	5.95	5.99	> 7.50	65.2	69.2	67.2	66.6	68.2	67.1	60.1	67.6	59.6	61.6	61.6	62.1	61.9	7.81	6.48	viability, T/C [5]: 6.91%; viability, T/C [6]: 1.68%; viability, T/C [11]: 7.16%; viability, T/C [12]: 1.62%; viability, T/C [16]: 54.9%; viability, T/C [17]: 3.92%; viability, T/C [18]: 2.34%; viability, T/C [21]: 55.6%; viability, T/C [22]: 51.2%; viability, T/C [23]: 2.41%; viability, T/C [24]: 0.74%; viability, T/C [27]: 3.08%; viability, T/C [28]: 0.59%; viability, T/C [29]: 0.43%; viability, T/C [30]: 0.18%
CCN1CCN(Cc2ccc(Nc3ncc(F)c(-c4cc(F)c5nc(C)n(C(C)C)c5c4)n3)nc2)CC1 + C=CC(=O)N1CCN(c2nc(OCC3CCCN3C)nc3c2CCN(c2cccc4cccc(C)c24)C3)CC1CC#N	8.09	8.30	> 8.50	8.20	> 8.50	39.1	38.6	37.2	45.5	39.1	31.2	31.7	44	33.8	32.8	31.9	36.6	28.8	3.68	2.57	viability, T/C [33]: 60.6%; viability, T/C [34]: 51.1%; viability, T/C [37]: 53.6%; viability, T/C [38]: 46%; viability, T/C [41]: 45%; viability, T/C [42]: 44.8%; viability, T/C [16]: 38.8%; viability, T/C [45]: 58.6%; viability, T/C [46]: 45.9%; viability, T/C [21]: 30.3%; viability, T/C [22]: 36.1%; viability, T/C [49]: 3%; viability, T/C [50]: 4.98%; viability, T/C [27]: 3.48%; viability, T/C [28]: 0.89%
COc1cc2nccc(Oc3ccc(NC(=O)C4(C(=O)Nc5ccc(F)cc5)CC4)cc3)c2cc1OC + C=CC(=O)N1CCN(c2nc(OCC3CCCN3C)nc3c2CCN(c2cccc4cccc(C)c24)C3)CC1CC#N	< 5.00	< 5.00	< 5.00	< 5.00	> 7.50	69	71.3	77.3	76.8	55.9	62.1	64.6	67.3	58.9	59.6	65.3	59.3	63.5	21.5	20.1	viability, T/C [5]: 74.6%; viability, T/C [6]: 80.3%; viability, T/C [11]: 65.9%; viability, T/C [12]: 64.3%; viability, T/C [16]: 68.8%; viability, T/C [17]: 64.8%; viability, T/C [18]: 70.1%; viability, T/C [21]: 62.8%; viability, T/C [22]: 69.9%; viability, T/C [23]: 66.5%; viability, T/C [24]: 58.5%; viability, T/C [27]: 8.93%; viability, T/C [28]: 3.74%; viability, T/C [29]: 3.65%; viability, T/C [30]: 0.28%
Cn1ncnc1[C@H]1c2n[nH]c(=O)c3cc(F)cc(c23)N[C@@H]1c1ccc(F)cc1 + C=CC(=O)N1CCN(c2nc(OCC3CCCN3C)nc3c2CCN(c2cccc4cccc(C)c24)C3)CC1CC#N	< 7.00	< 7.00	< 7.00	< 7.00	> 9.50	68.7	64			60.5	53.8			56.1	57.7		52.8	57	12.4	11.6	viability, T/C [31]: 75.5%; viability, T/C [32]: 83.2%; viability, T/C [33]: 73.7%; viability, T/C [34]: 71.2%; viability, T/C [35]: 71.2%; viability, T/C [36]: 62.3%; viability, T/C [37]: 62%; viability, T/C [38]: 61.5%; viability, T/C [39]: 64.2%; viability, T/C [40]: 63.8%; viability, T/C [41]: 62.7%; viability, T/C [42]: 60.4%; viability, T/C [43]: 58.6%; viability, T/C [44]: 65.5%; viability, T/C [45]: 59.6%; viability, T/C [46]: 62.6%; viability, T/C [47]: 12.5%; viability, T/C [48]: 10.9%; viability, T/C [49]: 13.9%; viability, T/C [50]: 11.5%
